The results in this text go back to ChEMBL document CHEMBL4613329, “Characterization of Inhibition Reveals Distinctive Properties for Human and Saccharomyces cerevisiae CRM1” (J Med Chem, 2020).

By IC50 is commonly meant the concentration that gives 50% inhibition.

The source made the active and inactive calls. No cut-off for these calls is given here.

Assay [1] deals with T1, Exportin-1 (Homo sapiens, UniProt O14980). The assay is described as follows: Inhibition of fluorescently labeled PKI phi(0)Leu NES binding to human CRM1 expressed in Escherichia coli BL21 (DE3) by fluorescence polarization competition binding assay. (In general: In fluorescence polarisation assays a small probe gives low polarisation when free and higher when bound to something large.)

Assay [2] deals with Exportin-1 (Homo sapiens), O14980 [C528S]. The assay is described as follows: Inhibition of fluorescently labeled PKI phi(0)Leu NES binding to human CRM1 C528S mutant expressed in Escherichia coli BL21 (DE3) at 62 uM by fluorescence polarization competition binding assay.
Assay [3] addresses T1, Exportin-1. The assay is described as follows: Inhibition of immobilized HsCRM1-HsRanGTP-HsSPN binding to C-terminal His6-tagged and MBP-fused full length human CRM1 expressed in Escherichia coli SG13009 at 100 nmol incubated for 20 mins by pull-down assay.
The target in assay [4] is Exportin-1 (Saccharomyces cerevisiae) (UniProt P30822). The assay is described as follows: Inhibition of fluorescently labeled PKI phi(0)Leu NES binding to Saccharomyces cerevisiae CRM1 expressed in Escherichia coli BL21 (DE3) at 0.5 to 500 uM by fluorescence polarization competition binding assay.
The subject of assay [5] is Exportin-1 (Homo sapiens), O14980 [C528S]. Briefly: Inhibition of fluorescently labeled PKI phi(0)Leu NES binding to human CRM1 C528S mutant expressed in Escherichia coli BL21 (DE3) at 6 uM by fluorescence polarization competition binding assay.
Assay [6] addresses Exportin-1 (Saccharomyces cerevisiae) (UniProt P30822). Briefly: Inhibition of fluorescently labeled PKI phi(0)Leu NES binding to Saccharomyces cerevisiae CRM1 expressed in Escherichia coli BL21 (DE3) at 0.2 to 200 uM by fluorescence polarization competition binding assay.
Assay [7] deals with Saccharomyces cerevisiae. Briefly: Inhibition of fluorescently labeled PKI phi(0)Leu NES binding to Saccharomyces cerevisiae CRM1 Thr539Cys mutant expressed in Escherichia coli BL21 (DE3) at 0.2 to 200 uM by fluorescence polarization competition binding assay.
Assay [8] has as its system Saccharomyces cerevisiae. The assay is described as follows: Inhibition of fluorescently labeled PKI phi(0)Leu NES binding to Saccharomyces cerevisiae CRM1 Thr539Cys mutant expressed in Escherichia coli BL21 (DE3) at 2 to 2000 nM by fluorescence polarization competition binding assay.
Assay [9] deals with Exportin-1 (Homo sapiens), O14980 [C528S]. Conditions: 200 nM.
Description: Inhibition of fluorescently labeled PKI phi(0)Leu NES binding to human CRM1 C528S mutant expressed in Escherichia coli BL21 (DE3) at 200 nM by fluorescence polarization competition binding assay
Assay [10] has as its target Exportin-1 (Saccharomyces cerevisiae) (UniProt P30822). Conditions: 2 to 2000 nM.
Description: Inhibition of fluorescently labeled PKI phi(0)Leu NES binding to Saccharomyces cerevisiae CRM1 expressed in Escherichia coli BL21 (DE3) at 2 to 2000 nM by fluorescence polarization competition binding assay

Sequence of Exportin-1 (Homo sapiens), O14980 [C528S] (O14980 whole entry C528S, the tested form may be a part): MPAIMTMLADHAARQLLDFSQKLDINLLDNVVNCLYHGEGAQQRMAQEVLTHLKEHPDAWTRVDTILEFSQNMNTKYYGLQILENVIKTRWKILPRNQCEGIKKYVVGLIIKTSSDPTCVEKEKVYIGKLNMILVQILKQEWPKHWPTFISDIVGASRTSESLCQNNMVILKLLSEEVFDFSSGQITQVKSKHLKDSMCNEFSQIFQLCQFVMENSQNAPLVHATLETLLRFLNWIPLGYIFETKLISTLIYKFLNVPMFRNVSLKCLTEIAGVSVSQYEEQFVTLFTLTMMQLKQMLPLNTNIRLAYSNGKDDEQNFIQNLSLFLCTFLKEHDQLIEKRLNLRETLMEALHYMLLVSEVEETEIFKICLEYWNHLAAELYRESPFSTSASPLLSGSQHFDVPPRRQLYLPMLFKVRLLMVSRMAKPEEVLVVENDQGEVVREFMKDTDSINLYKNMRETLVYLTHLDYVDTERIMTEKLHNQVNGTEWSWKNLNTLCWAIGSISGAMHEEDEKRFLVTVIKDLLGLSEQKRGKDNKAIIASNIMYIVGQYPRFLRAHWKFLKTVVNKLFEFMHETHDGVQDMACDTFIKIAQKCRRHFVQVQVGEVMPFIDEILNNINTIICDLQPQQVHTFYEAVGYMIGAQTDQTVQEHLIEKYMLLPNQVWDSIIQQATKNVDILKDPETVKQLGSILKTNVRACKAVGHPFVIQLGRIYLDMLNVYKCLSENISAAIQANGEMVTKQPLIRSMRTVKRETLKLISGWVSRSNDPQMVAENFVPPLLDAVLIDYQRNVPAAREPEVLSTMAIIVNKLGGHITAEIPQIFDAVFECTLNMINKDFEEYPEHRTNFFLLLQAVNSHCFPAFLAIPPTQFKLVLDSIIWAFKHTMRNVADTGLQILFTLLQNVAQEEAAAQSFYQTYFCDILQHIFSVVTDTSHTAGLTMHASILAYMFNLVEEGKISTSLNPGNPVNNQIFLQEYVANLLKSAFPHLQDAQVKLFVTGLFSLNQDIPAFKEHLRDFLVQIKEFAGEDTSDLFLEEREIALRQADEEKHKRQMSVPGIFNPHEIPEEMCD
T1 sequence (O14980 whole entry): as the sequence (O14980 whole entry C528S, the tested form may be a part) above, with S528C counted along it

As to `COc1cc2cnsc2s1`, the IC50 at Exportin-1 [1] is 40 µM. For the same molecule, on Exportin-1 [1], the inhibition result is “Dose-dependent effect”. In addition, the inhibition result (in [2]; at Exportin-1 [3]) was “inactive” in each case.
`CCOC(=O)c1n[nH]c2c1C(=O)N(c1ccc([N+](=O)[O-])cc1)C2=O`: the IC50 on Exportin-1 [1] is 63 µM. In addition, the inhibition entry (in assay [4]; in assay [2]; at Exportin-1 [3]) was “Active” throughout.
Regarding `COc1cc(-c2nc(S(=O)(=O)c3ccc(Cl)cc3)c(N(C)C)o2)cc(OC)c1OC`, the IC50 on Exportin-1 [1] worked out at 4.2 µM. In addition, the inhibition entry at Exportin-1 [1] was “Dose-dependent effect”. In addition, the inhibition entry (in assay [5]; in assay [6]; in the assay with Saccharomyces cerevisiae [7]) was “inactive” each time. In addition, the inhibition entry at Exportin-1 [3] is “Active”.
For the molecule `NC(=O)c1c(NC(NC(=O)c2ccccc2F)(C(F)(F)F)C(F)(F)F)sc2c1CCCC2`, the IC50 on Exportin-1 [1] stood at 59 µM. The inhibition result at Exportin-1 [1] was “Dose-dependent effect”. Besides, the inhibition result (in assay [6]; in [2]; at Exportin-1 [3]; in the assay on Saccharomyces cerevisiae [7]) was “inactive” each time.
For `CCC(=C/[C@H](C)C/C=C/C(C)=C/[C@@H](C)C(=O)[C@@H](C)[C@H](O)[C@@H](C)C/C(C)=C/C(=O)O)/C=C/[C@@H]1OC(=O)C=C[C@@H]1C` [LEPTOMYCIN B], the inhibition entry with Saccharomyces cerevisiae [8] was “Active”. The IC50 on Exportin-1 [1] worked out at 0.151 µM. Further, the inhibition entry in [9] and in assay [10] was “inactive” each time.
